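Here, GI50 denotes the concentration required for 50% inhibition of growth. At the TGI there is no net growth.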
Key:
Assay in all cases: DTP human tumour cell line panel, 384-well format
[1] = tested on: NCI-H226 lung
[2] = tested on: SK-MEL-5 melanoma
[3] = tested on: MOLT-4 leukemia
[4] = tested on: K-562 leukemia
[5] = tested on: NCI-H522 lung
[6] = tested on: MDA-MB-231 breast
[7] = tested on: OVCAR-5 ovarian
[8] = tested on: LOX IMVI melanoma
[9] = tested on: COLO 205 colon
[10] = tested on: SN12C renal
[11] = tested on: HOP-62 NSCLC
[12] = tested on: HS 578T breast
[13] = tested on: BT-549 breast

CS(=O)(=O)c1ccc(C(=O)Nc2ccc(Cl)c(-c3ccccn3)c2)c(Cl)c1 was tested, and the GI50 [1] was 22.9 µM, the TGI [1] was 64.3 µM and the GI50 [2] was 10.8 µM. The TGI [2] was over 29.3 µM, the GI50 [3] was 21.8 µM and the TGI [3] was 46.3 µM. For the same molecule, the GI50 [4] was 16.3 µM, the TGI [4] was 31.1 µM and the GI50 [5] was 46 µM. It also gave a TGI [5] of over 100 µM, a GI50 [6] of over 65.9 µM and a TGI [6] of over 100 µM. For the same molecule, the GI50 [7] was 54.2 µM, the TGI [7] was over 100 µM and the GI50 [8] was 47.2 µM. For the same molecule, the TGI [8] was over 100 µM, the GI50 [9] was 40.3 µM and the TGI [9] was over 100 µM. The GI50 [10] was over 68.8 µM, the TGI [10] was over 100 µM and the GI50 [11] was 61.9 µM. For the same molecule, the TGI [11] was over 100 µM, the GI50 [12] was 27.6 µM and the TGI [12] was over 84 µM. The GI50 [13] was 25.1 µM and the TGI [13] was 76.9 µM.

From PubChem BioAssay (NCI)
